Assay results as given in patent publication EP4596561A1, “PHOSPHORUS-CONTAINING COMPOUND, PHARMACEUTICAL COMPOSITION AND USE THEREOF” (Suzhou Genhouse Bio Co., Ltd., priority 2022, dated 2024).
pIC50: −log10 of the molar value. Read-outs that look alike come from different tables or passages of the source.

What was measured:
[1] = tested on: YAP-TEAD transcription complex; test: YAP-TEAD reporter gene assay (dual luciferase, stably transfected 293T cells); assay type: cell-based; details: Homo sapiens, HEK-293T
Experimental: YAP-TEAD reporter gene The YAP-TEAD reporter gene assay was performed as follows. Firstly, the 8xGTIIC promoter sequence ([…] GTACTGTTGGTAAA) was constructed into a pGL4.20(luc2-Puro) plasmid, and the TK promoter ([…]) unrelated to the hippo pathway was constructed into a pGL4.78(hRlucCP/Hygro) plasmid, thereby constructing stably transfected 293T cells that can stably and continuously express the transcriptional activity of the YAP-TEAD transcription complex. After selection and identification of individual clones, the clones were grown and maintained in a DMEM medium containing 10% fetal bovine serum, penicillin-streptomycin solution, 1 µg/mL puromycin, and 150 µg/mL hygromycin. To perform reporter gene assays with the compounds to be tested, the well-growing cells described above were plated in a 384-well plate at a cell density of 3000 cells per well, with 90 µL per well. The periphery was sealed with an appropriate amount of PBS to prevent evaporation of water from the peripheral wells. Administration was performed on the next day after the cell plating. The test compounds were added at different concentration gradients, and three replicate wells were set for each concentration point. The compound concentration started at 5 µM and was diluted seven times with a 5-fold gradient. A corresponding negative control group treated with DMSO was also set up. After 24 h of drug treatment, the detection reagents were prepared first. The Dual-Lumi™ Firefly luciferase detection reagent and Dual-Lumi™ Renilla luciferase detection buffer were dissolved and brought to room temperature. […]. According to the amount of 100 µL of Dual-Lumi™ Renilla luciferase detection working solution required for the detection of each sample, an appropriate amount of Dual-Lumi™ Renilla luciferase detection working solution was prepared. […]. The cell culture plate was taken out and allowed to equilibrate at room temperature for 10 min (usually no more than 30 min). Then, 100 µL of Dual-Lumi™ Firefly luciferase detection reagent was added to each well of a 96-well plate (25 µL per well for the 384-well plate), and the mixture was mixed well. The mixture was then incubated at room temperature (about 25 °C) for 10 min to stabilize the luminescent signal, and then chemiluminescence was detected using a multimode microplate reader with a chemiluminescence detection function. Subsequently, the detection of Renilla luciferase began. Firstly, 100 µL of Dual-Lumi™ Renilla luciferase detection working solution was added to each well of a […] (25 µL per well for the 384-well plate), and the mixture was mixed well. The mixture was then incubated at room temperature (about 25 °C) for 10 min to stabilize the luminescent signal. Finally, chemiluminescence was detected using a multimode microplate reader with a chemiluminescence detection function. The obtained data were analyzed using GraphPad Prism 7.0 software. A sigmoidal dose-survival rate curve was plotted using a non-linear regression model, and the IC50 values were calculated.

[2] = tested on: NCI-H2452 (NF2 wide-type); test: Inhibition of cell proliferation (CellTiter-Lumi); assay type: cell-based; details: Homo sapiens, 72 h + another 72 h treatment
Experimental: (§1) NCI-H2052 (NF2 mutant), NCI-H226 (NF2 mutant), NCI-H2452 (NF2 wide-type), NCI-H28 (NF2 wide-type), and MSTO-211H (NF2 wide-type) cells were cultured in RPMI 1640 complete media.
(§2) The normally growing cells described above were digested with a trypsin cell-digesting solution, centrifuged, counted, and then plated in a 96-well plate at a density of 1000 cells per well. Administration was performed 24 h after the cell plating. Inhibitors at different concentration gradients were added at 10 µL per well, and three replicate wells were set for each concentration point. The starting concentration was 20 µM and diluted 8 times with a 4-fold gradient. A corresponding negative control group treated with 0.1% DMSO was also set up. After 72 h of drug treatment, the cell culture plate to be tested was taken out of the incubator. The culture medium in the 96-well plate was pipetted, and 190 µL of fresh RPMI 1640 complete medium was added. Another administration was performed, and the cells were cultured for another 72 h. The 96-well plate was taken out and allowed to equilibrate at room temperature for 10 min. […] After shaking for two minutes, the mixture was reacted at room temperature for 10 min. Then, 150 µL of liquid was pipetted from the transparent 96-well plate and transferred to a white 96-well plate for chemiluminescence reading. The background value was subtracted from the value for each well to calculate the cell survival rate. Survival rate (%) = […]. Sample is the chemiluminescence of the drug-treated group, and Vehicle is the […] of the DMSO control group. A sigmoidal dose-survival rate curve was plotted using a non-linear regression model in the GraphPad Prism 7.0 software, and the IC50 values or GI50 values were calculated.

NCI-H28 (NF2 wide-type) = test: Inhibition of cell proliferation (CellTiter-Lumi); assay type: cell-based; details: Homo sapiens, 72 h + another 72 h treatment
Experimental: as §1, §2

in vivo = details: mouse, plasma, po, 200 mg/kg
Experimental: After adding 5% DMSO, the mixture was vortexed. 15% HS15 was then added, and the mixture was vortexed again. Finally, a 10% aqueous cyclodextrin solution was added, and the resulting mixture was vortexed to prepare the final concentration solution or suspension.

[3] = Saturated solubility in FaSSIF solution; assay type: physicochemical; details: room temperature, stirred overnight
Experimental: Efficacy Experimental Example 9: Test of Saturated Solubility of Samples in FaSSIF Solution
About 0.21 g of sodium hydroxide, about 2.24 g of sodium dihydrogen phosphate dihydrate, and 3.09 g of sodium chloride were weighed out and dissolved in 500 mL of water, and after dissolution, the pH was adjusted to 6.5 with 1 N sodium hydroxide or 1 N hydrochloric acid.
112 mg of FaSSIF solid was weighed out and placed in a 50 mL volumetric flask, and the buffer described above was added for dissolution. The resulting solution was diluted to volume, mixed well, and left to stand at room temperature for 2 h or more.
Test sample: About 1 mg of the test sample was taken, and 1 mL of FaSSIF solution was added. The mixture was stirred at room temperature overnight and centrifuged, and the supernatant was collected and injected for analysis.
Reference sample solution: About 1.5 mg of the test sample was precisely weighed out and placed in a 50 mL volumetric flask, and DMF was added for dissolution. The resulting solution was diluted to volume and mixed well.
The peak of the main component of the reference sample and the peak of the test sample with the same retention time were integrated, and the concentration thereof in the FaSSIF solution was calculated according to the external standard method.

[4] = Pharmacokinetic test in mice (low dose); assay type: in vivo, Balb/c mice; details: Balb/c, mouse, in vivo
Experimental: The compounds of the present disclosure were administered to Balb/c mice by single intravenous injection and oral gavage, and the plasma of the mice at each time point was collected. The concentration of the compounds to be tested in BALB/C plasma was detected using the LC-MS/MS analysis method, and pharmacokinetic analysis was performed.
The mixture was vortexed, shaken, and ultrasonicated. The remaining volume of 25% sulfobutylether-β-cyclodextrin (sterilized) was added to prepare the final concentration solution or suspension.
Intravenous injection formulations will be directly administered in animal experiments without filtration. The IV drug preparation vials were disinfected in an infrared sterilization cabinet one day in advance.
Intravenous injection: Administration was performed via the tail vein. After the needle was inserted, the syringe was slowly […].
Gavage: Gavage needle and syringe of an appropriate type were selected. The gavage needle was inserted from the root of the tongue into the esophagus until it reached near the cardia of the stomach, then the drug formulation was injected, and the gavage needle was withdrawn. When disposable plastic gavage needles were used, one needle was used for each group.
At each time point, 60 µL of whole blood was collected from the submandibular vein or tail vein (except for the IV group). The blood sample was added to a pre-cooled anticoagulant blood collection tube containing anticoagulant EDTA-K2 (1 µL, 15% EDTA-K2 solution), placed on wet ice, and centrifuged (3000 g, 4 °C, 10 min) within 1 h. The plasma was immediately collected after centrifugation, transferred to an EP tube, and stored at -90 °C to -60 °C.
Plasma concentration detection: A developed LC-MS/MS method was used to detect the compounds in plasma.
The plasma concentration-time data were analyzed using a non-compartmental model in the Phoenix® WinNonlin® (Version 8.2, Pharsight, Mountain View, CA).

[5] = 293T reporter cells, 24 h of drug treatment, read-out: IC50

Compound: CP(C)(=O)c1ccc2c(Oc3ccc(Cl)cc3)cccc2c1 [Example 28]
- pIC50 [1, 5]: 6.55
- pIC50 [2]: < 4.30
- pIC50 (NCI-H28 (NF2 wide-type)): < 4.70

Compound: Cn1cnc(-c2cc(P3(=O)CCOCC3)ccc2Nc2ccc(C(F)(F)F)cc2)c1 [Example 23]
- pIC50 ([1]; 24 h): 7.56

Compound: CP(C)(=O)c1ccc2c(Oc3ccc(C4CC4)cc3)cccc2c1 [Example 26]
- pIC50 [2]: < 5.30
- pIC50 (NCI-H28 (NF2 wide-type)): < 5.30

Compound: Cn1cnc(-c2cc(P(C)(C)=O)cnc2Nc2ccc(S(F)(F)(F)(F)F)cc2)c1 [Example 36]
- pIC50 [1, 5]: 7.41
- pIC50 [2]: < 4.70
- pIC50 (NCI-H28 (NF2 wide-type)): < 4.70

Compound: CP(C)(=O)c1cnc(Nc2ccc(S(F)(F)(F)(F)F)cc2)c(-c2cn3c(n2)CCC3)c1 [Example 37]
- pIC50 ([1]; 24 h): 8.23

Compound: CNS(=O)(=O)c1ccc(Nc2ccc(C(F)(F)F)cc2)c(-c2cn(C)cn2)c1 [Comparative compound B3, reference compound]
- AUC(0-t) (in vivo): 1040 µM·h
- FaSSIF(pH = 6.5) [3]: 14.0 ug/mL

Compound: Cn1cnc(-c2cc(P(C)(C)=O)ccc2Nc2ccc(S(F)(F)(F)(F)F)cc2)c1 [Example 31]
- pIC50 [1, 5]: 7.21

Compound: CNS(=O)(=O)c1ccc2c(Oc3ccc(C(F)(F)F)cc3)cccc2c1 [Comparative compound B2, reference compound]
- bioavailability [4]: 87.5%
- AUC(0-t) ([4]; iv, 2 mg/kg): 8.75 µM·h
- clearance ([4]; iv, 2 mg/kg): 6.03 mL/min/kg
- half-life ([4]; iv, 2 mg/kg): 19.6 h
- AUC(0-t) ([4]; po, 10 mg/kg): 52.8 µM·h
- Cmax ([4]; po, 10 mg/kg): 4.21 µM
- half-life ([4]; po, 10 mg/kg): 9.3 h
- AUC(0-t) (in vivo): 902 µM·h
- FaSSIF(pH = 6.5) [3]: 16.4 ug/mL

Compound: Cn1cnc(-c2cc(P(C)(C)=O)ccc2Nc2ccc3c(c2)OC(F)(F)O3)c1 [Example 30]
- pIC50 ([1]; 24 h): 7.63

Compound: CP(C)(=O)c1cnc(Nc2ccc3c(c2)OC(F)(F)O3)c(-c2cn3c(n2)CCC3)c1 [Example 39]
- pIC50 [1, 5]: 7.49
- pIC50 [2]: < 5.90
- pIC50 (NCI-H28 (NF2 wide-type)): < 5.90

Compound: Cn1cnc(-c2cc(P(C)(C)=O)ccc2Nc2ccc(Cl)cc2)c1 [Example 32]
- pIC50 ([1]; 24 h): 7.11
